Experimental findings from article PMC4600463 (European journal of medicinal chemistry, 2015) are described below.

This assay deals with Keap1 (Kelch domain) (Homo sapiens, UniProt Q14145). The following applies: SAR discussion.

SMILES strings stand for the structures. Entries after “also recorded” stand apart in the source; their conditions may differ.

Sequence of Keap1 (Kelch domain) (Q14145 321-609): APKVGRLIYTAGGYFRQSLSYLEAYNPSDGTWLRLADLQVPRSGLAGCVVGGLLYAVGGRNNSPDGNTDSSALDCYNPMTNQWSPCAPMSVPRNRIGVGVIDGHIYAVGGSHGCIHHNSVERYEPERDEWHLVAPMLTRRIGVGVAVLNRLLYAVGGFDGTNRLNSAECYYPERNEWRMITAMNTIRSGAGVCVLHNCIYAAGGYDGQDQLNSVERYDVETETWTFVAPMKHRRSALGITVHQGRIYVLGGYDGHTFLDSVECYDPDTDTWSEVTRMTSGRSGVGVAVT

In the case of `O=S(=O)(Nc1ccc(NS(=O)(=O)c2ccccc2)c2ccccc12)c1ccccc1` [Compound 11a, N,N′-(naphthalene-1,4-diyl)dibenzenesulfonamide], the “Activity in fluorescence anisotropy assay (in words)” value (shortened to “Activity”) is “inactive”.

As to `O=C(O)c1cccc(S(=O)(=O)Nc2ccc(NS(=O)(=O)c3cccc(C(=O)O)c3)c3ccccc23)c1` [Compound 11d, 3,3′-(((4-(hydrosulfonylamino)naphthalen-1-yl)amino)sulfonyl)dibenzoic acid], the “Activity” value was “inactive”.

In the case of `O=S(=O)(Nc1ccc(NS(=O)(=O)c2cccc(C(F)(F)F)c2)c2ccccc12)c1cccc(C(F)(F)F)c1` [Compound 11f, N,N′-(naphthalene-1,4-diyl)bis(3-trifluoromethylbenzenesulfonamide)], the “Activity” value is “inactive”. Regarding `COc1ccc(S(=O)(=O)Nc2cccc3ccccc23)cc1` [Compound 17, 4-methoxy-N-(naphthalen-1-yl)benzenesulfonamide], the “Activity” value is “inactive”. Turning to `COc1ccc(S(=O)(=O)N(CC(=O)O)c2cccc3ccccc23)cc1` [Compound 18, N-((4-methoxyphenyl)sulfonyl)-N-(naphthalen-1-yl)glycine], the “Activity” value was “inactive”.

Turning to `COc1ccc(S(=O)(=O)Nc2cc(NS(=O)(=O)c3ccc(OC)cc3)c3ccccc3c2)cc1` [Compound 19, N,N′-(naphthalene-1,3-diyl)bis(4-methoxybenzenesulfonamide)], the “Activity” value was “loss of activity”. Consider `COc1ccc(S(=O)(=O)Nc2cc3ccccc3cc2NS(=O)(=O)c2ccc(OC)cc2)cc1` [Compound 20, N,N′-(naphthalene-2,3-diyl)bis(4-methoxybenzenesulfonamide)], for which the “Activity” value was “loss of activity”.

For the molecule `COc1ccc(S(=O)(=O)N(CC(N)=O)c2cc(N(CC(N)=O)S(=O)(=O)c3ccc(OC)cc3)c3ccccc3c2)cc1` [Compound 21, 2,2′-(naphthalene-1,3-diylbis(((4-methoxyphenyl)sulfonyl)azanediyl))diacetamide], the “Activity” value was “loss of activity; also recorded: inactive”. As to `COc1ccc(S(=O)(=O)N(CC(=O)O)c2cc(N(CC(=O)O)S(=O)(=O)c3ccc(OC)cc3)c3ccccc3c2)cc1` [Compound 22, 2,2′-(naphthalene-1,3-diylbis(((4-methoxyphenyl)sulfonyl)azanediyl))acetic acid], the “Activity” value was “loss of activity”.

For `COc1ccc(S(=O)(=O)Nc2cc3ccccc3cc2N(CC(N)=O)S(=O)(=O)c2ccc(OC)cc2)cc1` [Compound 23, 2-(naphthalene-2,3-diylbis(((4-methoxyphenyl)sulfonyl)azanediyl))acetamide], the “Activity” value is “loss of activity; also recorded: inactive”.
